COC(=O)NCCCCCCNC(=O)OC
solubility (mole fraction)
Details	298.15 K	300.15 K	303.15 K	308.15 K	313.15 K	318.15 K	323.15 K	328.15 K	333.15 K
in dimethyl carbonate	0.00596	0.00689	0.00839	0.0117	0.0161	0.0207	0.026	0.0338	0.042
in ethanol	0.0155	0.0179	0.0205	0.0279	0.0355	0.0463	0.0625	0.0769	0.0987
in ethyl acetate	0.00814	0.00976	0.0124	0.0176	0.0233	0.029	0.0369	0.0445	0.0536
in toluene	0.00731	0.00912	0.0111	0.0167	0.0232	0.0353	0.0462	0.0614	0.0824
in water	6.21e-05	6.92e-05	7.91e-05	0.000106	0.000146	0.000185	0.00025	0.000339	0.000439
